Laboratory results: patent US20220332774A1, “THERAPEUTIC MITOCHONDRIAL PEPTIDES” (priority 2019, published 2022)

Assays:
3T3-L1 Mouse Adipocytes = assay: Free fatty acid levels in cultured 3T3-L1 mouse adipocytes (isoproterenol stimulated); format: cell-based; conditions: free fatty acid in medium; 5 μM peptide, 20-22 h pre-incubation then 3 h with 0.1 nM isoproterenol; isoproterenol alone = 100%
Procedure: The effect of the peptides on fatty acid metabolism can be assessed using an assay to monitor free fatty acid levels produced by cultured cells such as mouse adipocytes. Peptide arrays were initially prepared as 5 mM stock in DMSO and diluted to 0.5 mM in H2O; peptides were used at a final concentration of 5 μM (0.1% DMSO). Calculations for peptide concentrations based on approximate molecular weight of 2000 Daltons. […] Mouse 3T3-L1 cells purchased from ZenBio (Research Triangle Park, NC) were seeded at 3,000 cells per well in 96-well plates in Pre-adipocyte Medium (Zen-Bio) and grown to confluence at 37° C. in a humidified atmosphere of 5% CO2/95% air. Two days after confluence, cells were placed in Adipocyte Differentiation Medium (Zen-Bio) and cultured for three additional days at 37° C. in a humidified atmosphere of 5% CO2/95% air. The culture medium was then replaced with Adipocyte Maintenance Medium (Zen-Bio) and the cells maintained for an additional 9 days at 37° C. in a humidified atmosphere of 5% CO2/95% air with partial medium replacement every other day. Following 12 days of differentiation, medium was replaced Adipocyte Maintenance Medium without insulin and the cultures placed at 37° C. in a humidified atmosphere of 5% CO2/95% air. On day 13 of differentiation, test peptides were added directly to each well (without replacing the medium) at a final concentration of 5 μM in 0.1% DMSO and incubated for 20-22 hours at 37° C. in a humidified atmosphere of 5% CO2/95% air. […] Cells were incubated for 3 hours in Assay Buffer (Zen-Bio) at 37° C. in a humidified atmosphere of 5% CO2/95% air. Following 3 h incubation, conditioned medium from each well was transferred to a fresh 96-well plate. Free fatty acid concentrations in the medium were determined using a Free Fatty Acid Assay kit (Zen-Bio) according to the manufacturer's instructions; absorbance was measured using a Cytation 3 plate reader at 540 nm (BioTek, Winooski, Vt.). Treatment with 0.1 nM isoproterenol alone was used as the free fatty acid level stimulatory control. Absorbance values were expressed as percent control activity relative to 0.1 nM isoproterenol alone treated cells, 100%. The relative standard deviation of the isoproterenol control was <10%. Insulin at 0.25 nM was used as a potent control for decreasing free fatty acid levels. […] Data presented are representative values from 2 independent experiments with each data point performed in triplicate in each independent experiment.

C2C12 Cells = assay: Glucose utilization in cultured C2C12 cells (myotubes); format: cell-based, mouse; conditions: glucose concentration in medium relative to untreated cells; 5 μM peptide, 22 h
Procedure: The effect of the peptides on glucose homeostasis can be assessed using an assay to monitor glucose utilization by cultured cells such as mouse myotubes. Peptide arrays were initially prepared as 5 mM stock in DMSO and diluted to 0.5 mM in H2O; peptides were used at a final concentration of 5 μM (0.1% DMSO). Calculations for peptide concentrations based on approximate molecular weight of 2000 Daltons. C2C12 mouse muscle cell line was purchased from Millipore Sigma (Saint Louis, Mo.). C2C12 cells were seeded in standard medium (DMEM/low glucose (1 g/L)+10% Fetal Bovine Serum+antibiotics) at 7,500 cells/well on 96-well plates and grown to confluence at 37° C. in a humidified atmosphere of 5% CO2/95% air. Three days after plating the medium was removed and with Differentiation Medium (DMEM/low glucose (1 g/L)+2% Horse Serum+antibiotics) added. The cultures were placed at 37° C. in a humidified atmosphere of 5% CO2/95% air for 5 days with partially replacement of medium daily. After 5 days of differentiation, the medium was removed from myotube cultures and replaced with Assay Medium (DMEM/low glucose (1 g/L)+antibiotics). Culture were placed at 37° C. in a humidified atmosphere of 5% CO2/95% air for 5 h. Following the 5 h incubation the medium was removed and fresh Assay Medium containing compounds was added; 5 μM peptide or 1 mM metformin as a potent stimulator of glucose utilization. Cells were incubated for 22 h at 37° C. in a humidified atmosphere of 5% CO2/95% air. Following 22 h incubation, conditioned medium from each well was transferred to a fresh 96-well plate. Glucose concentrations in the medium were determined using a Glucose Assay kit (Abcam; Cambridge, Mass.) according to the manufacturer's instructions; absorbance measured using a Cytation 3 plate reader at 570 nm (BioTek, Winooski, Vt.). Untreated cells were used as reference for basal glucose utilization. Absorbance values were expressed as percent control activity relative to untreated treated cells for 5 μM peptide. The relative standard deviation from plate to plate of untreated control was <10%. […] Data presented are representative values from 2-3 independent experiments with each data point performed in triplicate in each independent experiment.

H4-IIE Cells = assay: Glucose production in cultured H4-IIE cells; format: cell-based, rat; conditions: glucose concentration in medium relative to untreated cells; 5 μM peptide, 24 h
Procedure: The effect of the peptides on glucose homeostasis can be assessed using an assay to monitor glucose production by cultured cells such as rat hepatocytes. Peptide arrays were initially prepared as 5 mM stock in DMSO and diluted to 0.5 mM in H2O; peptides were used at a final concentration of 5 μM (0.1% DMSO). Calculations for peptide concentrations based on approximate molecular weight of 2000 Daltons. H4-IIE rat hepatic cell line was purchased from American Type Culture Collection (Manassas, Va.). H4-IIE cells were seeded in standard medium (DMEM/high glucose+10% Fetal Bovine Serum+antibiotics) at 100,000 cells/well on 96-well plates and allowed to adhere overnight at 37° C. in a humidified atmosphere of 5% CO2/95% air. 24 h after seeding, the medium was removed, cells were rinsed with glucose free DMEM, and the medium replaced with Glucose Production Medium (glucose free DMEM+2 mM sodium pyruvate+10 mM sodium lactate+antibiotics). The cultures were placed at 37° C. in a humidified atmosphere of 5% CO2/95% air overnight. The next morning, the medium was removed and fresh Glucose Production Medium containing compounds was added; 5 uM peptide or 0.5-1 nM insulin as a potent inhibitor of glucose production. Cells were incubated for 24 h at 37° C. in a humidified atmosphere of 5% CO2/95% air. Following 24 h incubation, conditioned medium from each well was transferred to a fresh 96-well plate. Glucose concentrations in the medium were determined using a Glucose Assay kit (Abcam; Cambridge, Mass.) according to the manufacturer's instructions; absorbance measured using a Cytation 3 plate reader at 570 nm (BioTek, Winooski, Vt.). Untreated cells were used as reference for maximal glucose production. Absorbance values were expressed as percent control activity relative to untreated treated cells for 5 μM peptide. The relative standard deviation from plate to plate of untreated control was <25%. […] Glucose levels for 0.5-1 nM insulin treatment were <5% of the untreated control value. Data are presented as representative values from 2-3 independent experiments with each data point performed in triplicate in each independent experiment.

| Substance | Percent of Isoproterenol Control Activity (3T3-L1 Mouse Adipocytes) | Percent of Control Activity (C2C12 Cells) | Percent of Control Activity (H4-IIE Cells) |
| --- | --- | --- | --- |
| 40 (MGSPPPAGSKKVVL) [compound 40] | 95% | 109% | 109% |
| 24 (MFKLSFYFYVV) [compound 24] | 92% | 94% | 96% |
| 198 (PIVTIMSPSWLEVEKATIFLMSFC) [compound 198] | 112% | 88% | 100% |
| 70 (MLNWSNNLTNGTSYP) [compound 70] | 110% | 118% | 105% |
| 9 (MAQTMPMYPNGSFFPE) [compound 9] | 98% | 98% | 90% |
| 148 (MVLNLRVHRLRRTNLQLLHTSPIIP) [compound 148] | 103% | 103% | 109% |
| 123 (MSRNHSFCLNYMPIRFSLILFVVTH) [compound 123] | 104% | 88% | 106% |
| 36 (MGLAAVCVCWVGWAGVVLM) [compound 36] | 103% | 106% | 101% |
| 160 (MWLGVGLGWVG) [compound 160] | 102% | 94% | 102% |
| 146 (MVLEFGLVGYFLLGGGSGWV) [compound 146] | 97% | 106% | 99% |
| 136 (MTNTLNSIHPPLP) [compound 136] | 124% | 99% | 94% |
| 124 (MSSAWIIWFRLFSI) [compound 124] | 113% | 96% | 97% |
| 83 (MMGMWLVGHYVLSC) [compound 83] | 102% | 95% | 109% |
| 18 (MEAMGLAWNQLWGVRFLPFLS) [compound 18] | 102% | 97% | 99% |
| 66 (MLLGWRFQLGAWVGGLQ) [compound 66] | 104% | 101% | 101% |
| 170 (MYNYAKAPTL) [compound 170] | 95% | 106% | 109% |
| 128 (MSWSNIEVVNPIVDMDS) [compound 128] | 116% | 103% | 93% |
| 140 (MTYSPEQSQLQYMHQQTMFNQ) [compound 140] | 100% | 91% | 97% |
| 11 (MAVVDGWVNTWVVPKSASPWKN) [compound 11] | 84% | 96% | 76% |
| 88 (MMMTIECLHSHFPH) [compound 88] | 95% | 87% | 112% |
| 187 (AYEGCCYSCKQEDNADVSGFWVEK) [compound 187] | 102% | 110% | 113% |
| 91 (MMTHPTTPLTINTKPP) [compound 91] | 93% | 109% | 116% |
| 137 (MTSLHNSFYSKDTSLRTPLMTP) [compound 137] | 115% | 116% | 96% |
| 207 (VVGSWCWSLSWVVGMR) [compound 207] | 98% | 90% | 103% |
| 142 (MVEVGYNVVRVV) [compound 142] | 97% | 95% | 103% |
| 85 (MMKLRLTPWRLPDPPNHH) [compound 85] | 81% | 88% | 108% |
